Source: ChEMBL document CHEMBL1909046, “DrugMatrix in vitro pharmacology data”

Columns and labels:
[1] = molecular target: T1, C-X-C chemokine receptor type 1 (Homo sapiens, UniProt P25024); further: in other assays of this panel Not Active means under 50% inhibition at 10 µM
T1 sequence (P25024 whole entry): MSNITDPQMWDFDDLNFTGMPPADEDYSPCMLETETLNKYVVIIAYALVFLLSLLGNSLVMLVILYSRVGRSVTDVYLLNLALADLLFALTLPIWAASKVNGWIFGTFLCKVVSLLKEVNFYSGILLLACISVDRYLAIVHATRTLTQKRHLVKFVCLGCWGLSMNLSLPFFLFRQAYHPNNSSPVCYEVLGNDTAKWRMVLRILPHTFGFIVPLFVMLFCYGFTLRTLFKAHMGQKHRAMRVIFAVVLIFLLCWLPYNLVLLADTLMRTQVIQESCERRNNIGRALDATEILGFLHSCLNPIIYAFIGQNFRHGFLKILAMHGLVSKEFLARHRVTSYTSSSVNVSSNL

[2] = DRUGMATRIX: Glutamate, NMDA, Agonism radioligand binding (ligand: [3H] CGP-39653); format: cell membranes, Rattus norvegicus, Wistar, Cerebral cortex, Membrane; conditions: Not Active = under 50% inhibition at 10 µM
D(4) dopamine receptor = molecular target: T2, D(4) dopamine receptor (Homo sapiens, UniProt P21917); assay: DRUGMATRIX: Dopamine D4.2 radioligand binding (ligand: [3H] Spiperone); format: cell membranes, CHO-K1, Membrane; conditions: cho-k1; Not Active = under 50% inhibition at 10 µM
T2 sequence (P21917 whole entry): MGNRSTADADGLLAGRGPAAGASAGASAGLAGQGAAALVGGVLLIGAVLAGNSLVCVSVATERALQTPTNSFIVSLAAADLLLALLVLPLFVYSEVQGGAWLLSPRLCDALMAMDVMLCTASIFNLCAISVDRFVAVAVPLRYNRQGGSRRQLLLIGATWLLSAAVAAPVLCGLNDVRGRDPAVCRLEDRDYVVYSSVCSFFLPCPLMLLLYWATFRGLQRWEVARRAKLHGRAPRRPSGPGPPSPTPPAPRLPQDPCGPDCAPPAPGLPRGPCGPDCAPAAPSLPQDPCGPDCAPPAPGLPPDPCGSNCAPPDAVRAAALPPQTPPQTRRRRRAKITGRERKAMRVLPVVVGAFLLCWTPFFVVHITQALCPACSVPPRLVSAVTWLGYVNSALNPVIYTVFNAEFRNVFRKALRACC

[3] = DRUGMATRIX: Sigma2 radioligand binding (ligand: [3H] Ifenprodil); format: cell membranes, Rattus norvegicus, Wistar, Brain, Membrane; conditions: Not Active = under 50% inhibition at 10 µM
[4] = molecular target: Beta-1 adrenergic receptor (Homo sapiens, UniProt P08588); assay: DRUGMATRIX: Adrenergic beta1 radioligand binding (ligand: [125I] Cyanopindolol); format: cell membranes, CHO-K1, Membrane; conditions: cho-k1; Not Active = under 50% inhibition at 10 µM
Chain of Beta-1 adrenergic receptor (P08588 whole entry): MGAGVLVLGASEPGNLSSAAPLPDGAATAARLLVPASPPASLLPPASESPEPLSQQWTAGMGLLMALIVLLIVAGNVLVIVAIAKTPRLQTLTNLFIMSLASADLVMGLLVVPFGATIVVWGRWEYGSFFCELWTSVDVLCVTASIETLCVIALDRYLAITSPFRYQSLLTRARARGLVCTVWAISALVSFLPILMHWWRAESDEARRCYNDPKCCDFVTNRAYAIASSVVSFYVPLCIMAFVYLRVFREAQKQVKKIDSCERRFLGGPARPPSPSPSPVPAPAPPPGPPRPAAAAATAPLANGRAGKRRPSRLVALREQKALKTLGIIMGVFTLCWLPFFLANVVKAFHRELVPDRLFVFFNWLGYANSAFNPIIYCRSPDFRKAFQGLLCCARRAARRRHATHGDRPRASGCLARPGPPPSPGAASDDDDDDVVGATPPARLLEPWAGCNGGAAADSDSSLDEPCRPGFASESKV

Estrogen receptor = molecular target: T3, Estrogen receptor (Homo sapiens, UniProt P03372); conditions: sf9; further: in other assays of this panel Not Active means under 50% inhibition at 10 µM
T3 sequence (P03372 whole entry): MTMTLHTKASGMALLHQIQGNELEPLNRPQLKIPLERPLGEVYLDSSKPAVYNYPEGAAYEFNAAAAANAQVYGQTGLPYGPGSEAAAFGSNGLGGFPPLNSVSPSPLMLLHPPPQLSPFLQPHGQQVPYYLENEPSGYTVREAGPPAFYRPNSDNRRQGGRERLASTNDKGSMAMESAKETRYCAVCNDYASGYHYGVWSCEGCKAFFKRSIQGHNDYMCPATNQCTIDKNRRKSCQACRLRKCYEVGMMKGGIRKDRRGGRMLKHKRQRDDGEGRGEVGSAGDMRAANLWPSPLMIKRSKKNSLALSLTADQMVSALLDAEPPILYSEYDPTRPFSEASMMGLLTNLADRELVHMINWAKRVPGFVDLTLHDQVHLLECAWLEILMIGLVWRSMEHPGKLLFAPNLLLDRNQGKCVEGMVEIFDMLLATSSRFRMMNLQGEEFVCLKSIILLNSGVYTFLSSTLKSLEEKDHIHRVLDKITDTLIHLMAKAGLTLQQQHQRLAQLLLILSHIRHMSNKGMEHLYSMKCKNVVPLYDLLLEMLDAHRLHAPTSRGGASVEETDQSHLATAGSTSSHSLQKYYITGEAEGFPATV

[5] = molecular target: T4, Receptor-type tyrosine-protein phosphatase C (Homo sapiens, UniProt P08575); set-up: species or system Escherichia coli;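 further: inhibition of CD45 enzyme activity measured using DiFMUP as substrate; in other assays of this panel Not Active means under 50% inhibition at 10 µM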
T4 sequence (P08575 whole entry): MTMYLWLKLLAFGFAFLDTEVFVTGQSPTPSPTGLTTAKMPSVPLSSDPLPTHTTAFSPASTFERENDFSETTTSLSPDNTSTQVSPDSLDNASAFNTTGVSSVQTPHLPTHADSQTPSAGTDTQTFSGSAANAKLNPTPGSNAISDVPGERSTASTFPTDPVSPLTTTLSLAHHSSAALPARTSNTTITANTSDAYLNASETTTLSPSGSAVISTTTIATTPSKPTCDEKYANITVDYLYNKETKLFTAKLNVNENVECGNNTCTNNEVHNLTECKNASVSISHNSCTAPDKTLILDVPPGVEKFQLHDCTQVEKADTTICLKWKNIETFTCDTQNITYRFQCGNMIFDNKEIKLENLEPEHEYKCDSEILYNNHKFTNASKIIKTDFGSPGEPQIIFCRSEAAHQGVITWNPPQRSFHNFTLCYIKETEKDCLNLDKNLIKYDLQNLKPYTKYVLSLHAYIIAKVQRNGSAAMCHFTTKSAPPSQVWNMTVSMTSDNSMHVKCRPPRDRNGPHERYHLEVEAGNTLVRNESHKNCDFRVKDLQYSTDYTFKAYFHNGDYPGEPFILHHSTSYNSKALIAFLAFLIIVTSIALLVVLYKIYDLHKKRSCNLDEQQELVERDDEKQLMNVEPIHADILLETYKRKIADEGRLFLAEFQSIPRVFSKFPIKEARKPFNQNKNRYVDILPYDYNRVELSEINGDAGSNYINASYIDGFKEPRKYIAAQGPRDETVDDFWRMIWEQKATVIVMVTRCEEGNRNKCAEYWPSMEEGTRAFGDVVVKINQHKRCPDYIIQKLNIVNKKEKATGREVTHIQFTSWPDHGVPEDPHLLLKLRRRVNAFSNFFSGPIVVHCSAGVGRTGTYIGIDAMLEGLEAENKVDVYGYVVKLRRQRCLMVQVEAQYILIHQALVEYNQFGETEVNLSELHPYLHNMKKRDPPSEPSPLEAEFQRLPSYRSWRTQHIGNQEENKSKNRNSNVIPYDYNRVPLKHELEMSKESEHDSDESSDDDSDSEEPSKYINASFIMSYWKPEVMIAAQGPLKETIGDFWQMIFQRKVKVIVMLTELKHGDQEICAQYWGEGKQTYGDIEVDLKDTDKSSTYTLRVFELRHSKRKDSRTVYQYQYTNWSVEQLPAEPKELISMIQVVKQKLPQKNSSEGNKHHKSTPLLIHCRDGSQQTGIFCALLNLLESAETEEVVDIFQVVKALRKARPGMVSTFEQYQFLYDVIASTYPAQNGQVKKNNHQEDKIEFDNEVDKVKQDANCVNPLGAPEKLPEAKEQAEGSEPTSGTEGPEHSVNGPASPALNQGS

[6] = molecular target: Aldo-keto reductase family 1 member B1 (Rattus norvegicus, UniProt P07943); format: tissue-based, Lens of camera-type eye;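 further: inhibition of aldose reductase enzyme activity, measured with DL-glyceraldehyde as the substrate; in other assays of this panel Not Active means under 50% inhibition at 10 µM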

CCCC[C@@H](CC)COC(=O)c1ccccc1C(=O)OC[C@@H](CC)CCCC [BIS(2-ETHYLHEXYL)PHTHALATE]
Not Active: IC50 [1] | IC50 [2] | Ki [2] | IC50 (D(4) dopamine receptor) | IC50 [3] | Ki [3] | IC50 [4] | IC50 (Estrogen receptor) | IC50 [5] | IC50 [6]

Oc1c(Cl)cc(Cl)cc1Sc1cc(Cl)cc(Cl)c1O [BITHIONOL]
Not Active: IC50 [1] | IC50 [2] | Ki [2] | IC50 (D(4) dopamine receptor) | IC50 [3] | Ki [3] | IC50 [4] | IC50 (Estrogen receptor) | IC50 [5] | IC50 [6]

Brc1ccccc1 [BROMOBENZENE]
Not Active: IC50 [1] | IC50 [2] | Ki [2] | IC50 (D(4) dopamine receptor) | IC50 [3] | Ki [3] | IC50 [4] | IC50 (Estrogen receptor) | IC50 [5] | IC50 [6]

CCCCOC(=O)c1ccc(N)cc1 [BUTAMBEN]
Not Active: IC50 [1] | IC50 [2] | Ki [2] | IC50 (D(4) dopamine receptor) | IC50 [3] | Ki [3] | IC50 [4] | IC50 (Estrogen receptor) | IC50 [5] | IC50 [6]

CC[C@@]1(O)C(=O)OCc2c1cc1n(c2=O)Cc2cc3ccccc3nc2-1 [CAMPTOTHECIN]
Not Active: IC50 [1] | IC50 [2] | Ki [2] | IC50 (D(4) dopamine receptor) | IC50 [3] | Ki [3] | IC50 [4] | IC50 (Estrogen receptor) | IC50 [5] | IC50 [6]

COCc1c(C(C)C)nc(C(C)C)c(/C=C/[C@@H](O)C[C@@H](O)CC(=O)O)c1-c1ccc(F)cc1 [CERIVASTATIN]
Not Active: IC50 [1] | IC50 [2] | Ki [2] | IC50 (D(4) dopamine receptor) | IC50 [3] | Ki [3] | IC50 [4] | IC50 (Estrogen receptor) | IC50 [5] | IC50 [6]

CC(=O)O[C@]1(C(C)=O)CC[C@H]2[C@@H]3C=C(Cl)C4=CC(=O)CC[C@]4(C)[C@H]3CC[C@@]21C [CHLORMADINONE ACETATE]
Not Active: IC50 [1] | IC50 [2] | Ki [2] | IC50 (D(4) dopamine receptor) | IC50 [3] | Ki [3] | IC50 [4] | IC50 (Estrogen receptor) | IC50 [5] | IC50 [6]

O=C1CCc2cc(OCCCCc3nnnn3C3CCCCC3)ccc2N1 [CILOSTAZOL]
Not Active: IC50 [1] | IC50 [2] | Ki [2] | IC50 (D(4) dopamine receptor) | IC50 [3] | Ki [3] | IC50 [4] | IC50 (Estrogen receptor) | IC50 [5] | IC50 [6]

O=C(O)c1cn(C2CC2)c2cc(N3CCNCC3)c(F)cc2c1=O [CIPROFLOXACIN]
Not Active: IC50 [1] | IC50 [2] | Ki [2] | IC50 (D(4) dopamine receptor) | IC50 [3] | Ki [3] | IC50 [4] | IC50 (Estrogen receptor) | IC50 [5] | IC50 [6]

CN(C)CCCC1(c2ccc(F)cc2)OCc2cc(C#N)ccc21 (stereo not given) [CITALOPRAM]
Not Active: IC50 [1] | IC50 [2] | Ki [2] | IC50 (D(4) dopamine receptor) | IC50 [3] | Ki [3] | IC50 [4] | IC50 (Estrogen receptor) | IC50 [5] | IC50 [6]

C[C@]12CCC(=O)C=C1CC[C@@H]1[C@@H]2C(=O)C[C@@]2(C)[C@H]1CC[C@]2(O)C(=O)CO [CORTISONE]
Not Active: IC50 [1] | IC50 [2] | Ki [2] | IC50 (D(4) dopamine receptor) | IC50 [3] | Ki [3] | IC50 [4] | IC50 (Estrogen receptor) | IC50 [5] | IC50 [6]

CC1=Nc2ccc(Cl)cc2S(=O)(=O)N1 [DIAZOXIDE]
Not Active: IC50 [1] | IC50 [2] | Ki [2] | IC50 (D(4) dopamine receptor) | IC50 [3] | Ki [3] | IC50 [4] | IC50 (Estrogen receptor) | IC50 [5] | IC50 [6]
